Legend:
[1] = system: TGF-β-stimulated SMAD3 phosphorylation in BEAS-2B cells; assay: Cellular ALK5 potency assay, inhibition of TGF-β stimulated pSMAD3 formation in BEAS-2B cells; type: cell-based; settings: Homo sapiens, pSMAD3, TGF-β 10 ng/mL, read-out: BEAS2B pIC50 (converted)
Summary of the method: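 Human lung epithelial BEAS-2B cells were pre-treated with compound for 1 h at 37 °C, then stimulated with TGF-β (final 10 ng/mL) for 30 min before lysis. pSMAD3 was quantified by AlphaLISA and pIC50 derived from dose-dependent signal change versus TGF-β-stimulated untreated cells.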

[2] = biological target: T1, recombinant human ALK5 (TGF-βR1) protein (Homo sapiens, UniProt P36897); assay: Biochemical ALK5 (TGF-βR1) assay to measure pKi (LANCE Ultra ULight kinase assay); settings: apparent pKi, converted from pIC50 by Cheng-Prusoff
T1 construct: purchased Life Technologies PR9075A
T1 sequence (P36897 34-503): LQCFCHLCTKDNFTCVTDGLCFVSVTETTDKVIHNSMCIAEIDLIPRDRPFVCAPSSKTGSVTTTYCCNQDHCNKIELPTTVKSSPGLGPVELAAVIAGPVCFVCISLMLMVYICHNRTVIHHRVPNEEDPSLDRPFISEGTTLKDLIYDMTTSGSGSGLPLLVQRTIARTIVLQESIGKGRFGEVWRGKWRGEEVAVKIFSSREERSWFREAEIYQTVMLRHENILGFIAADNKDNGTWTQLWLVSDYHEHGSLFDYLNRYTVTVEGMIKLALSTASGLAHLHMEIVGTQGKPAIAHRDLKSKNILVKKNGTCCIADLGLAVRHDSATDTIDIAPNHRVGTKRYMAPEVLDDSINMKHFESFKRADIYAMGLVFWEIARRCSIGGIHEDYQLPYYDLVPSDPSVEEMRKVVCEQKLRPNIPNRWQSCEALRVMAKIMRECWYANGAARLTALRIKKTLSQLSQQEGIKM
Summary of the method: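 Europium TR-FRET kinase assay: the enzyme is exposed to compound for 60 min at room temperature, and reaction with ATP runs 60 min at 37 °C. Percent inhibition relative to DMSO and SD-208 controls gives pIC50, which is converted to pKi.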

| SMILES | IC50 [1] [nM] | Ki [2] [nM] |
| --- | --- | --- |
| COc1cc(N2CCOCC2)ccc1Nc1nccc(Nc2ccnc(-c3cccc(C)n3)n2)n1 [Compound 348, N2-(2-methoxy-4-morpholino-phenyl)-N4-[2-(6-methyl-2-pyridyl)pyrimidin-4-yl]pyrimidine-2,4-diamine] | 200 to 1260 | 3.98 to 31.6 |
| Cc1cccc(-c2nccc(Nc3ccnc(Nc4nc(C(=O)N5CCN[C@@H](CO)C5)cs4)n3)n2)n1 [Compound 349, [(3R)-3-(hydroxymethyl)piperazin-1-yl]-[2-[[4-[[2-(6-methyl-2-pyridyl)pyrimidin-4-yl]amino]pyrimidin-2-yl]amino]thiazol-4-yl]methanone] | 200 to 1260 | 0.398 to 3.16 |
| Cc1cccc(-c2nccc(Nc3ccnc(Nc4ccc(Cl)c(CN5CCSCC5)c4)n3)n2)n1 [Compound 350, N2-[4-chloro-3-(thiomorpholinomethyl)phenyl]-N4-[2-(6-methyl-2-pyridyl)pyrimidin-4-yl]pyrimidine-2,4-diamine] | 25.1 to 158 | 0.398 to 3.16 |
| Cc1cccc(-c2nccc(Nc3ccnc(Nc4ccc(C5COCCN5)cc4)n3)n2)n1 (stereo not drawn) [Compound 351, N4-[2-(6-methyl-2-pyridyl)pyrimidin-4-yl]-N2-(4-morpholin-3-ylphenyl)pyrimidine-2,4-diamine] | ≤ 20 | 0.0398 to 0.316 |
| CNC1CCN(S(=O)(=O)c2ccc(Nc3nccc(Nc4ccnc(-c5cccc(C)n5)n4)n3)cc2)CC1 [Compound 352, N2-[4-[[4-(methylamino)-1-piperidyl]sulfonyl]phenyl]-N4-[2-(6-methyl-2-pyridyl)pyrimidin-4-yl]pyrimidine-2,4-diamine] | 25.1 to 158 | 0.0398 to 0.316 |
| CC(=O)N(CC1CNC1)c1ccc(Nc2nccc(Nc3ccnc(-c4cccc(C)n4)n3)n2)cc1 [Compound 353, N-(azetidin-3-ylmethyl)-N-[4-[[4-[[2-(6-methyl-2-pyridyl)pyrimidin-4-yl]amino]pyrimidin-2-yl]amino]phenyl]acetamide] | 25.1 to 158 | 0.0398 to 0.316 |
| Cc1nc(-c2nccc(Nc3ccnc(Nc4ccc(N5CCOCC5)cc4)n3)n2)ccc1F [Compound 354, N4-[2-(5-fluoro-6-methyl-2-pyridyl)pyrimidin-4-yl]-N2-(4-morpholinophenyl)pyrimidine-2,4-diamine] | 25.1 to 158 | 0.398 to 3.16 |
| Cc1cccc(-c2nccc(Nc3ccnc(Nc4ccc(NCCN5CCOCC5)cc4)n3)n2)n1 [Compound 355, N4-[2-(6-methyl-2-pyridyl)pyrimidin-4-yl]-N2-[4-(2-morpholinoethylamino)phenyl] pyrimidine-2,4-diamine] | 25.1 to 158 | 0.398 to 3.16 |
| Cc1cccc(-c2nccc(Nc3ccnc(Nc4ccc(-c5cnn(CCN(C)C)c5)cc4)n3)n2)n1 [Compound 356, N2-[4-[1-[2-(dimethylamino)ethyl]pyrazol-4-yl]phenyl]-N4-[2-(6-methyl-2-pyridyl)pyrimidin-4-yl]pyrimidine-2,4-diamine] | 25.1 to 158 | 0.0398 to 0.316 |
| Cc1cccc(-c2nccc(Nc3ccnc(Nc4cccc(NC(=O)C5CCN(C6CCOCC6)CC5)c4)n3)n2)n1 [Compound 357, N-[3-[[4-[[2-(6-methyl-2-pyridyl)pyrimidin-4-yl]amino]pyrimidin-2-yl]amino]phenyl]-1-tetrahydropyran-4-yl-piperidine-4-carboxamide] | 25.1 to 158 | 0.0398 to 0.316 |
| Cc1cccc(-c2nccc(Nc3ccnc(Nc4ccc(C5=CCC(NC(C)C)CC5)cc4)n3)n2)n1 (stereo not drawn) [Compound 358, N2-[4-[4-(isopropylamino)cyclohexen-1-yl]phenyl]-N4-[2-(6-methyl-2-pyridyl)pyrimidin-4-yl]pyrimidine-2,4-diamine] | 200 to 1260 | 0.0398 to 0.316 |
| Cc1cccc(-c2nccc(Nc3ccnc(Nc4ccc(CN5CCNCC5)cc4)n3)n2)n1 [Compound 359, N4-[2-(6-methyl-2-pyridyl)pyrimidin-4-yl]-N2-[4-(piperazin-1-ylmethyl)phenyl]pyrimidine-2,4-diamine] | 25.1 to 158 | 0.0398 to 0.316 |
| Cc1cccc(-c2nccc(Nc3ccnc(Nc4ccc(C)c(CN5CCSCC5)c4)n3)n2)n1 [Compound 361, N4-[2-(6-methyl-2-pyridyl)pyrimidin-4-yl]-N2-[4-methyl-3-(thiomorpholinomethyl)phenyl] pyrimidine-2,4-diamine] | 25.1 to 158 | 0.0398 to 0.316 |
| Cc1cccc(-c2nccc(Nc3ccnc(Nc4cccc(CN5CCNCC5)c4)n3)n2)n1 [Compound 362, N4-[2-(6-methyl-2-pyridyl)pyrimidin-4-yl]-N2-[3-(piperazin-1-ylmethyl)phenyl]pyrimidine-2,4-diamine] | 25.1 to 158 | 0.0398 to 0.316 |
| Cc1cccc(-c2nccc(Nc3ccnc(Nc4ccc(NS(=O)(=O)CCN)cc4)n3)n2)n1 [Compound 363, 2-amino-N-[4-[[4-[[2-(6-methyl-2-pyridyl)pyrimidin-4-yl]amino]pyrimidin-2-yl]amino]phenyl] ethanesulfonamide] | 200 to 1260 | 0.398 to 3.16 |
| Cc1cccc(-c2nccc(Nc3ccnc(Nc4csc(NC(=O)C5CCNC5)c4)n3)n2)n1 (stereo not drawn) [Compound 364, N-[4-[[4-[[2-(6-methyl-2-pyridyl)pyrimidin-4-yl]amino]pyrimidin-2-yl]amino]-2-thienyl]pyrrolidine-3-carboxamide] | ≤ 20 | ≤ 0.0316 |
| Cc1cccc(-c2nccc(Nc3ccnc(Nc4ccc(N5CCN(C6CCOC6=O)CC5)cc4)n3)n2)n1 (stereo not drawn) [Compound 365, 3-[4-[4-[[4-[[2-(6-methyl-2-pyridyl)pyrimidin-4-yl]amino]pyrimidin-2-yl]amino]phenyl]piperazin-1-yl]tetrahydrofuran-2-one] | ≤ 20 | 0.0398 to 0.316 |
| Cc1cccc(-c2nccc(Nc3ccnc(Nc4ccc(CN5CCOCC5)cc4)n3)n2)n1 [Compound 366, N4-[2-(6-methyl-2-pyridyl)pyrimidin-4-yl]-N2-[4-(morpholinomethyl)phenyl] pyrimidine-2,4-diamine] | 25.1 to 158 | 0.0398 to 0.316 |
| CNC(=O)[C@@H]1CN(c2ccc(Nc3nccc(Nc4ccnc(-c5cccc(C)n5)n4)n3)cc2)CCN1 [Compound 367, (2S)-N-methyl-4-[4-[[4-[[2-(6-methyl-2-pyridyl)pyrimidin-4-yl]amino]pyrimidin-2-yl]amino]phenyl]piperazine-2-carboxamide] | 25.1 to 158 | 0.0398 to 0.316 |
| Cc1cccc(-c2nccc(Nc3ccnc(Nc4ccc(N5CCC(C(=O)OCC6CNC6)CC5)cc4)n3)n2)n1 [Compound 368, azetidin-3-ylmethyl 1-[4-[[4-[[2-(6-methyl-2-pyridyl)pyrimidin-4-yl]amino]pyrimidin-2-yl]amino]phenyl]piperidine-4-carboxylate] | 25.1 to 158 | 0.0398 to 0.316 |
| COC(=O)C1CN(CCNc2ccc(Nc3nccc(Nc4ccnc(-c5cccc(C)n5)n4)n3)cc2)CCN1 (stereo not drawn) [Compound 369, methyl 4-[2-[4-[[4-[[2-(6-methyl-2-pyridyl)pyrimidin-4-yl]amino]pyrimidin-2-yl]amino]anilino]ethyl] piperazine-2-carboxylate] | 25.1 to 158 | 0.398 to 3.16 |
| Cc1cccc(-c2nccc(Nc3ccnc(Nc4ccc(CN5CCN(C(C)C)CC5)cc4)n3)n2)n1 [Compound 370, N2-[4-[(4-isopropylpiperazin-1-yl)methyl]phenyl]-N4-[2-(6-methyl-2-pyridyl)pyrimidin-4-yl]pyrimidine-2,4-diamine] | 25.1 to 158 | 0.0398 to 0.316 |
| Cc1cccc(-c2nccc(Nc3ccnc(Nc4ccc(NS(=O)(=O)N(C)C)cc4)n3)n2)n1 [Compound 371, 4-[[2-[4-(dimethylsulfamoylamino)anilino]pyrimidin-4-yl]amino]-2-(6-methyl-2-pyridyl)pyrimidine] | 25.1 to 158 | 0.398 to 3.16 |
| Cc1cccc(-c2nccc(Nc3ccnc(Nc4ccc(CN5CC6(CCOC6)C5)cc4)n3)n2)n1 [Compound 372, N4-[2-(6-methyl-2-pyridyl)pyrimidin-4-yl]-N2-[4-(6-oxa-2-azaspiro[3.4]octan-2-ylmethyl)phenyl]pyrimidine-2,4-diamine] | 25.1 to 158 | 0.0398 to 0.316 |
| Cc1cccc(-c2nccc(Nc3ccnc(Nc4cnn(C5CCCNC5)c4)n3)n2)n1 (stereo not drawn) [Compound 373, N4-[2-(6-methyl-2-pyridyl)pyrimidin-4-yl]-N2-[1-(3-piperidyl)pyrazol-4-yl]pyrimidine-2,4-diamine] | 200 to 1260 | ≤ 0.0316 |
| Cc1cccc(-c2nccc(Nc3ccnc(Nc4ccc(C5CCCNC5)cc4)n3)n2)n1 (stereo not drawn) [Compound 374, N4-[2-(6-methyl-2-pyridyl)pyrimidin-4-yl]-N2-[4-(3-piperidyl)phenyl]pyrimidine-2,4-diamine] | 25.1 to 158 | 0.0398 to 0.316 |
| Cc1cccc(-c2nccc(Nc3ccnc(Nc4ccc(CN5C[C@@H]6C[C@H]5CN6)cc4)n3)n2)n1 [Compound 375, N2-[4-[[(1S,4S)-2,5-diazabicyclo[2.2.1]heptan-2-yl]methyl]phenyl]-N4-[2-(6-methyl-2-pyridyl)pyrimidin-4-yl]pyrimidine-2,4-diamine] | 25.1 to 158 | 0.0398 to 0.316 |
